In patent US9079887B2, “Antiviral compounds” (priority 2012, dated 2015):
Read-outs that look alike come from different tables or passages of the source.

Columns and labels:
Assay type in all cases: cell-based
[1] = test system: stable HCV 1b RLuc replicon cells (genotype 1b Con1 replicon); assay: HCV replicon RLuc reporter assay, genotype 1b; settings: Hepatitis C virus; genotype 1b replicon, 72 hours
Method: (§1) Antiviral potency (EC50) was determined using a Renilla luciferase (RLuc)-based HCV replicon reporter assay. To perform the assay for genotype 1 and 2a JFH-1, stable HCV 1a RLuc replicon cells (harboring a dicistronic genotype 1a H77 replicon that encodes a RLuc reporter), stable HCV 1b RLuc replicon cells (harboring a dicistronic genotype 1b Con1 replicon that encodes a RLuc reporter), or stable HCV 2a JFH-1 Rluc replicon cells (harboring a dicistronic genotype 2a JFH-1 replicon that encodes a RLuc reporter; with L31 present in NS5A) were dispensed into 384-well plates for EC50 assays. To perform the assay for genotype 2a (with M31 present in NS5A) or 2b, NS5A chimeric genotype 2a JFH-1 replicons that encodes a RLuc-Neo reporter and either genotype 2a J6 strain NS5A gene or genotype 2b MD2b-1 strain NS5A gene (both with M31 present) respectively, were either transiently transfected (t) into Huh-Lunet cells or were established as stably replicating replicon cells (s). Either cells were dispensed into 384-well plates for EC50 assays. To perform the assay for genotype 3 and 4, NS5A chimeric genotype 1b Con1 replicons that encodes a Pi-RLuc reporter and either genotype 3a S52 strain NS5A gene or genotype 4a ED43 strain NS5A gene respectively, were transiently transfected (t) into Huh-Lunet cells, which were subsequently dispensed into 384-well plates. Alternatively, stable HCV 3a RLuc replicon cells (s) (harboring a dicistronic genotype 3a S52 replicon that encodes an RLuc reporter), or stable HCV 4a RLuc replicon cells (s) (harboring a dicistronic genotype 4a ED43 replicon that encodes a RLuc reporter) were established in Huh-7-derived cells and dispensed into 384-well plates for EC50 assays. Compounds were dissolved in DMSO at a concentration of 10 mM and diluted in DMSO either manually or using an automated pipeting instrument. Serially 3-fold diluted compounds were either manually mixed with cell culture media and added to the seeded cells or directly added to the cells using an automated instrument. DMSO was used as a negative (solvent; no inhibition) control, and the protease inhibitor ITMN-191 was included at a concentration >100×EC50 as a positive control. 72 hours later, cells were lysed and Renilla luciferase activity quantified as recommended by the manufacturer (Promega-Madison, Wis.). Non-linear regression was performed to calculate EC50 values.

[2] = test system: stable HCV 1a RLuc replicon cells (genotype 1a H77 replicon); assay: HCV replicon RLuc reporter assay, genotype 1a; settings: Hepatitis C virus, genotype 1a replicon
Method: as §1

[3] = test system: stable HCV 2a JFH-1 Rluc replicon cells (L31 present in NS5A); assay: HCV replicon RLuc reporter assay, genotype 2a JFH-1; settings: Hepatitis C virus
Method: as §1

[4] = HCV replicon assay, genotype 2b (stable); settings: Hepatitis C virus, genotype 2a / genotype 2b
Method: as §1

[5] = test system: stable HCV 3a RLuc replicon cells (genotype 3a S52 replicon); assay: HCV replicon assay, genotype 3a (stable); settings: Hepatitis C virus
Method: as §1

[6] = test system: stable HCV 4a RLuc replicon cells (genotype 4a ED43 replicon); assay: HCV replicon assay, genotype 4a (stable); settings: Hepatitis C virus
Method: as §1

[7] = HCV replicon assay, genotype 2a J6 (transient); settings: Hepatitis C virus
Method: as §1

SMILES | EC50 [1] [nM] | EC50 [2] [nM] | EC50 ([2]; activity range) [nM] | EC50 ([3]; read-out: 2a JFH) [nM] | EC50 ([3]; read-out: 2a JFH (nM)) [nM] | EC50 ([4]; 2BS, read-out: 2b (s)) [nM] | EC50 ([4]; read-out: 2b (s) (nM)) [nM] | EC50 ([5]; read-out: 3a (s)) [nM] | EC50 ([5]; read-out: 3a (s) (nM)) [nM] | EC50 ([6]; read-out: 4a (s)) [nM] | EC50 ([6]; read-out: 4a (s) (nM)) [nM] | EC50 ([7]; read-out: 2a J6 (t)) [nM] | EC50 ([7]; read-out: 2a J6 (t) (nM)) [nM]
COC[C@H]1C[C@@H](c2ncc(-c3ccc(-c4ccc(-c5[nH]c([C@@H]6CC[C@H](C)N6C(=O)[C@@H](NC(=O)OC)C(C)C)nc5Cl)cc4)cc3)[nH]2)N(C(=O)[C@@H](NC(=O)OC)C(C)C)C1 [AH, Methyl (S)-1-((2S,4S)-2-(5-(4′-(4-chloro-2-((2S,4S)-1-((R)-2-(methoxycarbonylamino)-3-methylbutanoyl)-5-methylpyrrolidin-2-yl)-1H-imidazol-5-yl)biphenyl-4-yl)-1H-imidazol-2-yl)-4-(methoxymethyl)pyrrolidin-1-yl)-3-methyl-1-oxobutan-2-ylcarbamate] | 0.04 | 0.037 | < 0.1 | < 0.1 | 0.066 | 1 to 44 | 7.3 | 1 to 44 | 36.5 | < 0.1 | 0.02 |  | 
COC[C@H]1C[C@@H](c2nc(Cl)c(-c3ccc(-c4ccc(-c5cnc([C@@H]6CC[C@H](C)N6C(=O)[C@@H](NC(=O)OC)C(C)C)[nH]5)cc4)cc3)[nH]2)N(C(=O)[C@@H](NC(=O)OC)C(C)C)C1 [AI, Methyl (S)-1-((2S,4S)-2-(4-chloro-5-(4′-(2-((2S,4S)-1-((R)-2-(methoxycarbonylamino)-3-methylbutanoyl)-5-methylpyrrolidin-2-yl)-1H-imidazol-5-yl)biphenyl-4-yl)-1H-imidazol-2-yl)-4-(methoxymethyl)pyrrolidin-1-yl)-3-methyl-1-oxobutan-2-ylcarbamate] | 0.028 | 0.034 | < 0.1 | < 0.1 | 0.075 | 1 to 44 | 5.08 | 1 to 44 | 40.8 | < 0.1 | 0.018 |  | 
COC[C@H]1C[C@@H](c2nc(Cl)c(-c3ccc(-c4ccc(-c5[nH]c([C@@H]6CC[C@H](C)N6C(=O)[C@@H](NC(=O)OC)C(C)C)nc5Cl)cc4)cc3)[nH]2)N(C(=O)[C@@H](NC(=O)OC)C(C)C)C1 [Example AG, Methyl (S)-1-((2S,4S)-2-(4-chloro-5-(4′-(4-chloro-2-((2S,4S)-1-((R)-2-(methoxycarbonylamino)-3-methylbutanoyl)-5-methylpyrrolidin-2-yl)-1H-imidazol-5-yl)biphenyl-4-yl)-1H-imidazol-2-yl)-4-(methoxymethyl)pyrrolidin-1-yl)-3-methyl-1-oxobutan-2-ylcarbamate] | 0.019 | 0.022 | < 0.1 | < 0.1 | 0.05 | 1 to 44 | 2.56 | 1 to 44 | 17.6 | < 0.1 | 0.011 |  | 
COC[C@H]1C[C@@H](c2ncc(-c3ccc(-c4ccc(-c5cnc([C@@H]6CC[C@H](C)N6C(=O)[C@@H](NC(=O)OC)C6CCOCC6)[nH]5)cc4)cc3)[nH]2)N(C(=O)[C@@H](NC(=O)OC)C2CCOCC2)C1 [Example AJ, Methyl [(1S)-2-{(2S,5S)-2-[5-(4′-{2-[(2S,4S)-1-[(2S)-2-[(methoxycarbonyl)amino]-2-(tetrahydro-2H-pyran-4-yl)acetyl]-4-(methoxymethyl)pyrrolidin-2-yl]-1H-imidazol-5-yl}biphenyl-4-yl)-1H-imidazol-2-yl]-5-methylpyrrolidin-1-yl}-2-oxo-1-(tetrahydro-2H-pyran-4-yl)ethyl]carbamate] | 0.384 | 0.186 | 0.1 to 0.999 | < 0.1 | 0.079 | 0.1 to 0.999 | 0.672 | 1 to 44 | 1.34 | 0.1 to 0.999 | 0.133 | 0.1 to 0.999 | 0.155
COC[C@H]1C[C@@H](c2ncc(-c3ccc(-c4ccc(-c5cnc([C@@H]6CC[C@H](C)N6C(=O)[C@@H](NC(=O)OC)C6CCOCC6)[nH]5)cc4)cc3)[nH]2)N(C(=O)[C@@H](NC(=O)OC)C(C)C)C1 [Example AL, Methyl {(2S)-1-[(2S,4S)-2-{5-[4′-(2-{(2S,5S)-1-[(2S)-2-[(methoxycarbonyl)amino]-2-(tetrahydro-2H-pyran-4-yl)acetyl]-5-methylpyrrolidin-2-yl}-1H-imidazol-5-yl)biphenyl-4-yl]-1H-imidazol-2-yl}-4-(methoxymethyl)pyrrolidin-1-yl]-3-methyl-1-oxobutan-2-yl}carbamate] | 0.074 | 0.052 | < 0.1 | < 0.1 | 0.035 | 1 to 44 | 2.17 | 1 to 44 | 2.14 | < 0.1 | 0.04 | < 0.1 | 0.084
COC[C@H]1C[C@@H](c2ncc(-c3ccc(-c4ccc(-c5cnc([C@@H]6CC[C@H](C)N6C(=O)[C@@H](NC(=O)OC)C(C)C)[nH]5)cc4)cc3)[nH]2)N(C(=O)[C@@H](NC(=O)OC)C2CCOCC2)C1 [Example AN, Methyl [(1S)-2-[(2S,4S)-2-[5-(4′-{2-[(2S,5S)-1-{(2S)-2-[(methoxycarbonyl)-amino]-3-methylbutanoyl}-5-methylpyrrolidin-2-yl]-1H-imidazol-5-yl}biphenyl-4-yl)-1H-imidazol-2-yl]-4-(methoxymethyl)pyrrolidin-1-yl]-2-oxo-1-(tetrahydro-2H-pyran-4-yl)ethyl]carbamate] | 0.065 | 0.037 | < 0.1 | < 0.1 | 0.027 | 1 to 44 | 2.14 | 1 to 44 | 2.19 | < 0.1 | 0.035 | 0.1 to 0.999 | 0.207
